Assay results: patent EP1283052A1, “Pharmaceutical composition containing caspase-8 and /or caspase-9 useful for overcoming glucocorticoid- and cancer therapy-induced apoptosis of tumours” (Deutsches Krebsforschungszentrum Stiftung des öffentlichen …, priority 2001, dated 2003)

Test system: caspase-9 and caspase-3
Test: Caspase-9 and caspase-3 protein expression in P5 cells (immunofluorescence, Western blot)
Type: cell-based, human
Conditions: Fig. 4c
Description: P5 cells either untreated (CO) or stimulated with cisplatin (CIS, 2 µg/ml) were incubated in the absence or presence of DEX (1 µM). • (a) 6 and 24 h later RNA was extracted and assayed by RT-PCR for expression of caspase-9. Expression of the GAPDH gene served as control for equal conditions. • (b) 24 h after stimulation expression of caspase-9 proteins was examined by immunofluorescence staining using a rabbit polyclonal caspase-9 antibody and a FITC-coupled secondary antibody. Staining with the secondary antibody alone served as control for unspecific binding. • (c) 48 and 72 h after treatment whole cell proteins were extracted and analysed for expression of caspase-9 and caspase-3. The protein sizes in kDa are indicated on the right. […]
• (A) Cell culture. […] The mice were given 0.28 mg/L DEX in drinking water, and the amount of water consumed was monitored. […] The tumour volumes were measured using callipers, and calculated using, as an approximation, the formula for volume of a hemi-ellipsoid: π(width^2 x length)/6. […] Early apoptotic changes were identified by staining of cells with fluoresceinthiocyanate (FITC)-conjugated annexin V and propidium iodide (Becton Dickinson, Heidelberg, Germany) and analysed by flow cytometry (FACScan, Becton Dickinson) as described (Herr et al., EMBO J. 16 (1997), 6200-6208) • (E) Immunohistochemistry. […]

## N.N.[Cl][Pt][Cl] [cisplatin]
Western blot at 48 and 72 h
  protein levels of procaspase-9: reduced the protein levels of procaspase-9
Cisplatin alone, 48 and 72 h
  procaspase-3 cleavage: cleaved 48 and 72 h following cisplatin
